Drawing on publication doi:10.1101/757047v1 (biorxiv, 2019), this text covers IC50 and Ki for 28 molecules.

Assay [1] deals with T1, full length GAK protein N-terminally fused with NanoLuc luciferase (Homo sapiens, UniProt O14976).
T1 sequence (O14976 2-1311): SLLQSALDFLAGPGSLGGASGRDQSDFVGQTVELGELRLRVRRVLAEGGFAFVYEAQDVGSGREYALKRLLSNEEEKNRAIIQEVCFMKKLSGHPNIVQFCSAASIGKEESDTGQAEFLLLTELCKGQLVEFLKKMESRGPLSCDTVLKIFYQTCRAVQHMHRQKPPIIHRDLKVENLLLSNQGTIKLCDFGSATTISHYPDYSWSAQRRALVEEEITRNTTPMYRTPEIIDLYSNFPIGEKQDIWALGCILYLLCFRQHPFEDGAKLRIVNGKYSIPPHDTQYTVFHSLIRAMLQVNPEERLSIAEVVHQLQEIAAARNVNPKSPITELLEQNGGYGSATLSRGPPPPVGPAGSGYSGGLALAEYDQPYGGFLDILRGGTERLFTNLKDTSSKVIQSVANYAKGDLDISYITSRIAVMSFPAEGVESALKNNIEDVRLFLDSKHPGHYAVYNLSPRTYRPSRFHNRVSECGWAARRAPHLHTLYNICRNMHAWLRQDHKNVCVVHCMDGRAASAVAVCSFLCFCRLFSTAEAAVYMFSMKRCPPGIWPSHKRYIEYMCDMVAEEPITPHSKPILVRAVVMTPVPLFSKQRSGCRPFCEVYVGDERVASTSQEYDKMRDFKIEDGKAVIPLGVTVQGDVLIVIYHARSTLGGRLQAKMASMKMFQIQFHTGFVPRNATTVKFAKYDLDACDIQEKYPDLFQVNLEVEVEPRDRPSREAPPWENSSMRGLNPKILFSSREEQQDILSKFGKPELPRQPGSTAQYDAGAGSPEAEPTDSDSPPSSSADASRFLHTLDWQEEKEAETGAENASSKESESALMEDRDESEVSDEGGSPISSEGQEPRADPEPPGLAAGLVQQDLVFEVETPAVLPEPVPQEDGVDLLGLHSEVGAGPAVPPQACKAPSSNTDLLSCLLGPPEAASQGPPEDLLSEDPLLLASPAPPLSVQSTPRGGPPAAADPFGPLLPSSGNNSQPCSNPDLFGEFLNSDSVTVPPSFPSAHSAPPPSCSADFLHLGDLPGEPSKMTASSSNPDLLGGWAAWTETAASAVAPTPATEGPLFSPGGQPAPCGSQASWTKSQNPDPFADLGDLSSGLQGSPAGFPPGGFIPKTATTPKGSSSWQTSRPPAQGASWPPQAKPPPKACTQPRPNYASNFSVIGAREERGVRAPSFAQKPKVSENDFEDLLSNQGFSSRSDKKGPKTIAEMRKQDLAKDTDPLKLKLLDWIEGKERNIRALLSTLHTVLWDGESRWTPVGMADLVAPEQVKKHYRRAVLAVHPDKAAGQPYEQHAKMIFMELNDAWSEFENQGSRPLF
The experiment in a line: nanoBRET cellular target engagement. Type of assay: cell-based. In general terms: BRET reads energy transfer from a luciferase to a nearby fluorophore.

Assay [2] has as its target T2, SLK (Homo sapiens, UniProt Q9H2G2). The assay is described as follows: TR-FRET binding displacement assay. In general terms: In TR-FRET formats the signal depends on donor and acceptor labels being close together.
The target of assay [3] is T3, STK10 (Homo sapiens, UniProt O94804). The assay is described as follows: TR-FRET binding displacement assay.
Assay [4] deals with T4, GAK (Homo sapiens, UniProt O14976).
T4 sequence (O14976 12-347 limits assumed): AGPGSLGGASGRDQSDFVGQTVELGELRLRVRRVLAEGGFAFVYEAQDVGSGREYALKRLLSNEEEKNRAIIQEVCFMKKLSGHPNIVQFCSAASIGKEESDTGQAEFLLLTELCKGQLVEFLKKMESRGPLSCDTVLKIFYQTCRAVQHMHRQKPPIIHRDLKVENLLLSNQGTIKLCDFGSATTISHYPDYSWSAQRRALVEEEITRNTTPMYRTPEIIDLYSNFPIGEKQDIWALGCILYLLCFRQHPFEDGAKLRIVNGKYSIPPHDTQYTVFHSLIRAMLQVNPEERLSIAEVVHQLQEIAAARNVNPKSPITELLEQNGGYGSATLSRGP
The experiment in a line: TR-FRET binding displacement assay.

Assay [5] concerns the target T4, GAK. The experiment in a line: biochemical.
Assay [6] addresses T2, SLK. The experiment in a line: biochemical.
The target in assay [7] is T3, STK10. The experiment in a line: biochemical.
Assay [8] addresses T1, full length GAK protein N-terminally fused with NanoLuc luciferase. The experiment in a line: cell-based. On the set-up: species or system HEK293T.
Assay [9] shares this target. The experiment in a line: cell-based. On the set-up: species or system HEK293T. This is another data set of the same source.
The target of assay [10] is T4, GAK. The assay is described as follows: biochemical. This is another data set of the same source.
Assay [11] addresses T2, SLK. The assay is described as follows: biochemical. This is another data set of the same source.
Assay [12] deals with T3, STK10. The assay is described as follows: biochemical. The source holds these as a separate data set.
Where [13] appears, read: ATP site tracer displacement, 16-point dose response.
Where [14] appears, read: HEK293T cells, tracer displacement, n=[…] mean.

SMILES strings stand for the structures. Bounds are passed on as bounds.

T3 sequence (O94804 36-294 limits assumed): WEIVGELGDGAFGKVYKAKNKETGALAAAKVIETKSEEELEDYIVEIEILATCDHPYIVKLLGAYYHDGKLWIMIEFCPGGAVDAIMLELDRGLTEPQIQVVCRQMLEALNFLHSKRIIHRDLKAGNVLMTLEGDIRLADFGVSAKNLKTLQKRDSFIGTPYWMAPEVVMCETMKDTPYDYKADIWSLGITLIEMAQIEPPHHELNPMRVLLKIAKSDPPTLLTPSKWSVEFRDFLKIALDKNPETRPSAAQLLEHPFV
T2 sequence (Q9H2G2 34-292): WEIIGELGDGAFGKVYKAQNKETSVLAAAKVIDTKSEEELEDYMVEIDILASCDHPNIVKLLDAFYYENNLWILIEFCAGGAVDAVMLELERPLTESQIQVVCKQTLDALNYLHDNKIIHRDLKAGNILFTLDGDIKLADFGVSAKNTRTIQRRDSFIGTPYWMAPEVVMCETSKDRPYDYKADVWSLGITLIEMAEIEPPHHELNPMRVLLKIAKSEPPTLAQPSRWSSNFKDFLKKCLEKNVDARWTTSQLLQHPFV

With `COc1cc(Nc2ccnc3ccc(C#N)cc23)cc(OC)c1OC` [compound 13, 13], the IC50 in assay [1] is 360 nM. Also, the Ki in [2] is 19000 nM; in assay [3], 1700 nM; in assay [4] (setting [13]), 1.5 nM.

In assay [1], `COc1ccc2nccc(Nc3cc(OC)c(OC)c(OC)c3)c2c1` [compound 14, 14] showed an IC50 of 360 nM. The results for the Ki in assay [2], in assay [3] and in [4] (setting [13]) were > 55000 nM, 12000 nM and 13 nM, respectively.

`COc1cc(Nc2ccnc3cc(Cl)ccc23)cc(OC)c1OC` [compound 17, 17]: the 50% inhibitory concentration (IC50) in [1] worked out at 250 nM. Further, the Ki was found to be 2100 nM in assay [2], 210 nM in assay [3] and 1.3 nM in assay [4].

The molecule `COc1cc(Nc2ccnc3cc(Br)ccc23)cc(OC)c1OC` [compound 18, 18] had a half-inhibitory concentration (IC50) in assay [1] of 270 nM. The figures for the Ki in assay [2], in assay [3] and in [4] were 2700 nM, 380 nM and 4.9 nM, respectively.

Molecule `COc1cc(Nc2ccnc3cc(I)ccc23)cc(OC)c1OC` [compound 19, 19] came in with a concentration for half-maximal inhibition (IC50) in assay [1] of 74 nM. The inhibitory constant (Ki) in assay [2] was determined as 1700 nM; in [3] it was 210 nM; in [4], 4.4 nM.

In assay [1] (setting [14]), `COc1cc(Nc2ccnc3cc(C(F)(F)F)ccc23)cc(OC)c1OC` [compound 20, 20] came in with a half-maximal inhibitory concentration (IC50) of 520 nM. In addition, the inhibition constant (Ki) worked out at 3200 nM in assay [2], 370 nM in assay [3] and 6.2 nM in assay [4] (setting [13]).

Regarding `COc1cc(Nc2ccnc3cc(C#N)ccc23)cc(OC)c1OC` [compound 21, 21], inhibition in assay [1] was half-maximal at 350 nM (IC50). Moreover, the values for the Ki in [2], in assay [3] and in [4] (setting [13]) were 1100 nM, 130 nM and 2.7 nM, respectively.

On to `COc1ccc2c(Nc3cc(OC)c(OC)c(OC)c3)ccnc2c1` [compound 22, 22], for which the 50% inhibitory concentration (IC50) in [1] (setting [14]) was found to be 440 nM. Further, the Ki was determined as 13000 nM in [2], 1300 nM in assay [3] and 2.6 nM in assay [4] (setting [13]).

Take `C#Cc1cccc(Nc2ncnc3ccccc23)c1` [compound 54, 54]: the Ki in [5] came out at 170 nM; in assay [6] it was 23000 nM; in [7] it was 10000 nM. Half-maximal inhibition in [8] (IC50) was put at 4500 nM.

For the molecule `C#Cc1cccc(Nc2ncnc3ccc(C)cc23)c1` [compound 55, 55], the values for the Ki in [5], in [6] and in [7] were 43 nM, 4300 nM and 2600 nM, respectively. The midpoint of inhibition in assay [8], the IC50, lay at 3600 nM.

Regarding `C#Cc1cccc(Nc2ncnc3ccc(F)cc23)c1` [compound 56, 56], the Ki in assay [5] stood at 70 nM; in assay [6] it was 8500 nM; in [7], 5500 nM. Moreover, half-maximal inhibition in assay [8] (IC50) was put at 2000 nM.

Consider `C#Cc1cccc(Nc2ncnc3cc(F)c(F)cc23)c1` [compound 57, 57], for which the values for the Ki in [5], in assay [6] and in [7] were 85 nM, 3800 nM and 2900 nM, respectively. For the same molecule, the IC50 in assay [8] was > 5000 nM.

With `C#Cc1cccc(Nc2ncnc3ccc(Cl)cc23)c1` [compound 58, 58], the figures for the Ki in [5], in assay [6] and in assay [7] were 30 nM, 3900 nM and 2800 nM, respectively. In addition, the half-maximal inhibitory concentration (IC50) in assay [8] is > 5000 nM.

On to `C#Cc1cccc(Nc2ncnc3ccc(Br)cc23)c1` [compound 59, 59], for which the Ki came out at 28 nM in assay [5], 3400 nM in assay [6] and 2500 nM in assay [7]. The half-maximal inhibitory concentration (IC50) in assay [8] is > 5000 nM.

Turning to `C#Cc1cccc(Nc2ncnc3ccc(I)cc23)c1` [compound 60, 60], the inhibitory constant (Ki) in assay [5] came to 44 nM; in assay [6], 4300 nM; in [7], 3700 nM. Moreover, the IC50 in assay [8] is > 5000 nM.

As to `C#Cc1cccc(Nc2ncnc3ccc(C(F)(F)F)cc23)c1` [compound 61, 61], the inhibition constant Ki in [5] amounted to 150 nM; in [6] it was 3200 nM; in assay [7], 3400 nM. The half-maximal inhibitory concentration (IC50) in assay [8] is > 5000 nM.

For the molecule `C#Cc1cccc(Nc2ncnc3cc(F)ccc23)c1` [compound 62, 62], the Ki in assay [5] turned out to be 22 nM; in [6], 1200 nM; in assay [7] it was 1200 nM. In assay [8], this molecule yielded a concentration for half-maximal inhibition (IC50) of 4100 nM.

In the case of `C#Cc1cccc(Nc2ncnc3cc(Br)ccc23)c1` [compound 64, 64], the results for the inhibition constant (Ki) in assay [5], in assay [6] and in assay [7] were 31 nM, 260 nM and 290 nM, respectively. The IC50 in assay [8] was > 5000 nM.

Regarding `C#Cc1cccc(Nc2ncnc3cc(I)ccc23)c1` [compound 65, 65], the Ki came out at 20 nM in [5], 180 nM in [6] and 150 nM in assay [7]. For the same molecule, the half-inhibitory concentration (IC50) in assay [8] is > 5000 nM.

For `C#Cc1cccc(Nc2ncnc3cc(C(F)(F)F)ccc23)c1` [compound 66, 66], the Ki in [5] was found to be 88 nM; in [6], 1200 nM; in [7], 1000 nM. For the same molecule, the half-maximal inhibitory concentration (IC50) in [8] was > 5000 nM.

On to `C#Cc1cccc(Nc2ncnc3ccc(C#N)cc23)c1` [compound 68, 68], for which the values for the Ki in [5], in assay [6] and in [7] were 170 nM, 7900 nM and 4700 nM, respectively. The IC50 in assay [8] was > 5000 nM.

Regarding `C#Cc1cccc(Nc2ncnc3ccc(OC)cc23)c1` [compound 70, 70], the Ki came to 24 nM in assay [5], 2800 nM in assay [6] and 2200 nM in assay [7]. This molecule came in with an IC50 in assay [8] of 2900 nM.

For the molecule `C#Cc1cccc(Nc2ncnc3cc(OC)ccc23)c1` [compound 72, 72], the Ki worked out at 8.8 nM in assay [5], 670 nM in assay [6] and 460 nM in assay [7]. The molecule also registered a concentration for half-maximal inhibition (IC50) in [8] of 1200 nM.

As for `C#Cc1cccc(Nc2ncnc3cc4c(cc23)OCO4)c1` [compound 73, 73], the values for the Ki in assay [5], in assay [6] and in assay [7] were 19 nM, 2700 nM and 1500 nM, respectively. In [8], this molecule came in with a concentration for half-maximal inhibition (IC50) of 1700 nM.

On to `C#Cc1ccc(F)c(Nc2ncnc3cc(C#N)ccc23)c1` [compound 87, 4-((5-ethynyl-2-fluorophenyl)amino)quinazoline-7-carbonitrile], for which the results for the inhibitory constant (Ki) in [2], in [3] and in [4] were 560 nM, 670 nM and 1200 nM, respectively. For the same molecule, the IC50 in [9] was > 5000 nM.

Take `C#Cc1cccc(Nc2ncnc3cc(C#N)ccc23)c1F` [compound 88, 88]: the inhibitory constant (Ki) is 330 nM in assay [10], 1100 nM in [11] and 500 nM in assay [12]. The IC50 in assay [9] was > 5000 nM.

Consider `C#Cc1cc(Nc2ncnc3cc(I)ccc23)ccc1F` [compound 93, 93], for which the inhibition constant Ki in [11] and in assay [12] was 110 nM in each case. In addition, the IC50 in assay [9] is > 5000 nM.

As to `C#Cc1cccc(Nc2ncnc3cc(OC)c(OC)cc23)c1F` [compound 100, 100], the Ki in assay [11] amounted to 670 nM; in assay [12], 250 nM. This molecule had an IC50 in [9] of 400 nM.

What is called IC50 is the midpoint of a concentration-inhibition curve. The low end stands for inhibition by little substance, the high end for a need for much substance. The term Ki denotes the equilibrium dissociation constant of an inhibitor or competing ligand from its target. A high value points to lower affinity.
